Tests used:
[1] = human, serum, 4383 h
[2] = Highest frequency of acute liver toxicity observed during clinical trials, expressed as a percentage. [column '% AIGUE' in source]; conditions: human
[3] = human
[4] = human; remark: listed apart in the source
[5] = human; remark: listed apart in the source
[6] = human; remark: listed apart in the source
[7] = human; remark: listed apart in the source
[8] = human; remark: listed apart in the source
[9] = human; remark: listed apart in the source
[10] = human, serum
[11] = human; remark: listed apart in the source
[12] = human; remark: listed apart in the source
[13] = human, serum; remark: listed apart in the source
[14] = Highest frequency of moderate liver toxicity observed during clinical trials, expressed as a percentage. [column '% BIOL' in source]; conditions: human
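Throughout, for Hepatotoxicity (association with vascular disease): count of indexed literature references reporting vascular liver injury in humans, e.g. peliosis hepatitis, hepatic veno-occlusive disease or Budd-Chiari syndrome.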
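Throughout, for Hepatotoxicity (benign tumour): value is a count of indexed literature references citing a benign tumour confirmed by histopathology.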
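Throughout, for Hepatotoxicity (choleostasis): human cholestatic liver injury, shown by histopathology or by peak ALT or AST elevation over alkaline phosphatase ratio below 2, value counts indexed literature reports.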
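Throughout, for Hepatotoxicity (chronic liver disease): chronic liver injury confirmed by histopathology or persistently raised serum aminotransferase activity beyond 6 months, value given as the count of indexed literature references.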
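Throughout, for Hepatotoxicity (cirrhosis): value is a count of indexed literature references reporting cirrhosis confirmed by histopathology.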
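Throughout, for Hepatotoxicity (cytolytic): human cytolytic liver injury, shown by histopathology or by a ratio above 5 of peak ALT or AST elevation to alkaline phosphatase elevation, value counts indexed references.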
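Throughout, for Hepatotoxicity (granulomatous hepatitis): value is a count of indexed literature references reporting granulomatous liver disease confirmed by histopathology.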
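Throughout, for Hepatotoxicity (malignant tumour): malignant tumour confirmed by histopathology, value gives the count of indexed literature references reporting it.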
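Throughout, for Hepatotoxicity (severe hepatitis): human clinical data: severe hepatitis, meaning potentially life-threatening liver failure or clinically observed cases, the value counts how many indexed literature references report it.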
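Throughout, for Hepatotoxicity (steatosis): steatosis confirmed by histopathology, value is the count of indexed references.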

Row | Compound | Hepatotoxicity (chronic liver disease) [1] | Hepatotoxicity (acute) [2] | Hepatotoxicity (granulomatous hepatitis) [3] | Hepatotoxicity (choleostasis) [4] | Hepatotoxicity (cirrhosis) [5] | Hepatotoxicity (association with vascular disease) [6] | Hepatotoxicity (cytolytic) [7] | Hepatotoxicity (malignant tumour) [8] | Hepatotoxicity (severe hepatitis) [9] | Hepatotoxicity (acute) [10] | Hepatotoxicity (steatosis) [11] | Hepatotoxicity (benign tumour) [12] | Hepatotoxicity (moderate) [13] | Hepatotoxicity (moderate) [14]
1 | LOBAPLATIN | 0 | 0% | 0 | 0 | 0 | 0 | 0 | 0 | 0 | 0 | 0 | 0 | 1 | 3.7%
2 | NS(=O)(=O)c1cc2c(cc1Cl)NC(CC1CCCC1)NS2(=O)=O (centres undefined) [CYCLOPENTHIAZIDE] | 0 | 0% | 0 | 0 | 0 | 0 | 0 | 0 | 0 | 1 | 0 | 0 | 1 | 0%
3 | CNC(=O)c1cccc2c(Nc3ccc(NS(C)(=O)=O)cc3OC)c3cccc(C)c3nc12 [ASULACRINE] | 0 | 0% | 0 | 0 | 0 | 0 | 0 | 0 | 0 | 0 | 0 | 0 | 2 | 17%
4 | CN(C)S(=O)(=O)c1ccc2c(c1)N(CCCN1CCC(CCO)CC1)c1ccccc1S2 [PIPOTIAZINE] | 0 | 0% | 0 | 0 | 0 | 0 | 0 | 0 | 0 | 0 | 0 | 0 | 1 | 1.9%
5 | C[C@@H](O)[C@H]1C(=O)N2C(C(=O)O)=C(S[C@@H]3CN[C@H](C(=O)N(C)C)C3)[C@H](C)[C@H]12 [MEROPENEM] | 0 | 5.3% | 0 | 0 | 0 | 0 | 0 | 0 | 0 | 1 | 0 | 0 | 92 | 48.1%
6 | N[C@@H]1CN(c2c(F)cc3c(=O)c(C(=O)O)cn([C@@H]4C[C@@H]4F)c3c2Cl)CC12CC2 [SITAFLOXACIN ANHYDROUS] | 0 | 0% | 0 | 0 | 0 | 0 | 0 | 0 | 0 | 0 | 0 | 0 | 6 | 23.2%
7 | CC=CC1=C(C(=O)O)N2C(=O)[C@@H](NC(=O)[C@H](N)c3ccc(O)cc3)[C@H]2SC1 [CEFPROZIL] | 0 | 0.6% | 0 | 1 | 0 | 0 | 0 | 0 | 0 | 1 | 0 | 0 | 42 | 25%
8 | Cc1cc(=O)n(-c2ccccc2)n1C [ANTIPYRINE] | 0 | 0% | 0 | 1 | 0 | 0 | 0 | 0 | 0 | 1 | 0 | 0 | 0 | 0%
9 | Nc1ncnc2c1ncn2CCOCP(=O)(O)O [ADEFOVIR] | 0 | 7.4% | 0 | 0 | 0 | 0 | 1 | 0 | 0 | 1 | 0 | 0 | 2 | 33.3%
10 | CC(C(=O)O)c1ccc(CC2CCCC2=O)cc1 (centres undefined) [LOXOPROFEN] | 0 | 0% | 0 | 0 | 0 | 0 | 0 | 0 | 1 | 1 | 0 | 0 | 0 | 0%
11 | C[C@H]1O[C@@H](O[C@H]2[C@@H](O)C[C@H](O[C@H]3[C@@H](O)C[C@H](O[C@H]4CC[C@@]5(C)[C@H](CC[C@@H]6[C@@H]5C[C@@H](O)[C@]5(C)[C@@H](C7=CC(=O)OC7)CC[C@]65O)C4)O[C@@H]3C)O[C@@H]2C)C[C@H](O)[C@@H]1O [DIGOXIN] | 0 | 0% | 0 | 0 | 0 | 0 | 0 | 0 | 0 | 0 | 0 | 0 | 1 | 8.3%
12 | CNC(=O)C[C@@H](N)C(=O)N[C@@H](C(=O)N[C@@H]1C(=O)N2[C@@H]1SC(C)(C)[C@@H]2C(=O)O)c1ccc(O)cc1 [ASPOXICILLIN] | 0 | 0% | 0 | 0 | 0 | 0 | 0 | 0 | 0 | 0 | 0 | 0 | 20 | 40%
13 | Nc1ncc2ncn(COCCO)c2n1 [DESCICLOVIR] | 0 | 0% | 0 | 0 | 0 | 0 | 0 | 0 | 0 | 0 | 0 | 0 | 1 | 15.4%
14 | CC(NN)c1ccccc1 (centres undefined) [MEBANAZINE] | 0 | 0% | 0 | 0 | 0 | 0 | 0 | 0 | 0 | 0 | 0 | 0 | 1 | 9%
15 | Cc1cnc(NCCCN(C)C)c2c1[nH]c1ccc3cc(O)ccc3c12 [INTOPLICINE] | 0 | 3.8% | 0 | 0 | 0 | 0 | 0 | 0 | 0 | 1 | 0 | 0 | 0 | 0%
16 | N[C@@H](CSCC(=O)O)C(=O)O [CARBOCYSTEINE] | 0 | 0% | 0 | 0 | 0 | 0 | 0 | 0 | 0 | 0 | 0 | 0 | 1 | 0.8%
